Values quoted from earlier work as cited in patent publication US8440245B2, “Methods for making nutritional compositions comprising curcuminoids” (priority 2009, dated 2013).

Assays:
microtubule assembly = conditions: @ 40 μm
[1] = percentage of ingested curcuminoid actually metabolized by the body

SMILES: COc1cc(/C=C/C(=O)CC(=O)/C=C/c2ccc(O)c(OC)c2)ccc1O [Curcumin, curcumin]
- Inhibition of Microtubule Assembly (microtubule assembly): 50% @

SMILES: O=C(/C=C/c1ccc(O)cc1)CC(=O)/C=C/c1ccc(O)cc1 [BDMC, bisdemethoxycurcumin]
- Metabolic Recovery [1]: ~75%

SMILES: COc1cc(/C=C/C(O)=C/C(=O)/C=C/c2ccc(O)cc2)ccc1O [DMC, demethoxycurcumin]
- Metabolic Recovery [1]: ~50%
